“Also recorded” adds a separate entry of the source. Where two headings read alike, the source gives them in different places.
Legend:
[1] = target: T1, urease from Canavalia ensiformis (Canavalia ensiformis, UniProt P07374); assay: Urease inhibition assay (indophenol method, cell-free); type: biochemical; details: for effect on urease activity: at concentrations of up to 100 µM
T1 construct: purchased Sigma
Method: A reaction mixture consisting of 25 µL of enzyme solution (urease from Canavalia ensiformis, Sigma, 1U final concentration) and 5 µL of test compounds dissolved in water (10–300.0 µM final concentration) was preincubated at 37 °C for 60 min in 96-well plates. Then, 55 µL of phosphate-buffered solution with […] of urea was added to each well and incubated at 37 °C for 10 min. The urease inhibitory activity was estimated by determining ammonia production using the indophenol method. Briefly, 45 µL of phenol reagent (1% w/v phenol and 0.005% w/v sodium nitroprusside) and 70 µL of alkali reagent (0.5% w/v NaOH and 0.1% active chloride NaClO) were added to each well. The absorbance was measured after 50 min at 630 nm using a MultiskanFS microplate reader (Thermo Scientific Inc., Beverly, MA, USA). All reactions were performed in triplicate in a final volume of 200 µL. The pH was maintained at 7.3–7.5 in all assays. DMSO 5% was used as a positive control.

[2] = tested on: Candida albicans KMM 455; assay: Antimicrobial activity, inhibition of microbial growth (OD620); type: cell-based; details: for inhibition at 100 µM: Candida albicans
Method: (§1) The yeast-like fungi of Candida albicans KMM 455 and bacterial strains Staphylococcus aureus ATCC 21027 and Escherichia coli VKPM (B-7935) (Collection of Marine Microorganisms PIBOC FEB RAS) were cultured on solid-medium Mueller Hinton broth with agar (16.0 g/L) in a Petri dish at 37 °C for 24 h.
(§2) The assays were performed in 96-well microplates in appropriate Mueller Hinton broth. Each well contained 90 µL of bacterial or of a yeast-like fungi suspension (10^9 CFU/mL). Then, 10 µL of a compound diluted at concentrations ranging from 1.5 to 100.0 µM using a 2-fold dilution was added (DMSO concentration < 1%). Culture plates were incubated overnight at 37 °C, and the OD620 was measured using a Multiskan FS spectrophotometer (Thermo Scientific Inc., Beverly, MA, USA). The antibiotic gentamicin and antifungal agent nitrofungin were used as positive controls at 1 mg/mL; 1% DMSO in PBS served as a negative control.

[3] = tested on: Escherichia coli VKPM (B-7935); assay: as above; type: cell-based; details: for inhibition at 100 µM: Escherichia coli, read-out: Inhibition of Microbial Growth, E. coli
Method: as §1, §2

[4] = tested on: Staphylococcus aureus ATCC 21027; assay: as above; type: cell-based; details: for inhibition at 100 µM: Staphylococcus aureus
Method: as §1, §2

[5] = Cell viability assay (MTT), cytotoxic activity; type: cell-based, human; details: 24 h, MTT; for viability at 24 h, 10 µM / viability at 24 h, 100 µM: percent of control
Method: (§3) The HepG2 and H9c2 cells were cultured in DMEM medium (Biolot, St. Petersburg, Russia) containing 10% fetal bovine serum (Biolot, St. Petersburg, Russia) and 1% penicillin/streptomycin (Biolot, St. Petersburg, Russia) at 37 °C in a humidified atmosphere with 5% (v/v) CO2.
(§4) The HepG2 and H9c2 cells were seeded at concentrations of 5× 10^3 and 3×10^3 cell/well, respectively, and the experiments were started after 24 h. The compounds at concentrations up to 100 µM were added into the wells for 24 h, and the viability of the cells was measured by an MTT (3-(4,5-dimethylthiazol-2-yl)-2,5-diphenyltetrazolium bromide) assay, which was performed according to the manufacturer’s instructions (Sigma-Aldrich, Munich, Germany). All compounds were dissolved with DMSO so that the final concentration of DMSO in the cell culture was not more than 1%. Moreover, DMSO was used as a control. The absorbance of the resulting solution was measured at 570 nm with a microplate reader MultiscanFC (ThermoLabsystems Inc., Beverly, MA, USA). The results are presented as a percent of the control data and calculated IC50.

[6] = tested on: normal rat cardiomyocyte H9c2 cells; assay: Cell viability assay (MTT), cytotoxic activity; type: cell-based; details: for decrease of H9c2 cell viability: 100 µM; for IC50: 24 h, MTT, read-out: H9c2 IC50 (cytotoxic effect)
Method: as §3, §4

[7] = tested on: human hepatocarcinoma HepG2 cells; assay: Cell viability assay (MTT), cytotoxic activity; type: cell-based; details: for decrease of HepG2 cell viability: 100 µM; for IC50: 24 h, MTT, read-out: HepG2 IC50 (cytotoxic effect)
Method: as §3, §4

[8] = tested on: S. aureus-infected H9c2 cardiomyocytes; assay: Staphylococcus aureus-induced infection of H9c2 cardiomyocytes (in vitro model of infectious myocarditis, MTT); type: cell-based, rat; details: 1 and 10 µM
Method: The H9c2 cells were seeded at concentrations of 3 × 10^3 cell/well. After 24 h, the cell culture media was changed with an S. aureus bacterial suspension (10^2 CFU/mL) prepared in full DMEM culture media. The investigated compounds at concentrations of 1 and 10 µM were added after 1 h and the cells were incubated for 48 h. The S. aureus suspension with compounds at the same concentrations was used as a control. MTT reagent was added to all wells and formazan production was detected with the microplate reader MultiscanFC (ThermoLabsystems Inc., Beverly, MA, USA). The viability of S. aureus-infected cells was calculated as:Viability, relative units = (OD cells+Sa +comp − OD Sa+comp)/(OD cells+Sa − OD Sa)

[9] = KMM455, compounds tested at 100 µM, read-out: Inhibition of Microbial Growth, C. albicans
[10] = ATCC21027, compounds tested at 100 µM, read-out: Inhibition of Microbial Growth, S. aureus
[11] = human, HepG2 cells (human hepatocarcinoma), read-out: HepG2 IC50 (cytotoxic effect)
[12] = human, HepG2 hepatocarcinoma cells
[13] = rat, H9c2 cells (normal rat cardiomyocytes), read-out: H9c2 IC50 (cytotoxic effect)
[14] = human, read-out: HepG2 Cell Viability
[15] = rat, read-out: H9c2 Cell Viability

T1 sequence (P07374 whole entry, looked up): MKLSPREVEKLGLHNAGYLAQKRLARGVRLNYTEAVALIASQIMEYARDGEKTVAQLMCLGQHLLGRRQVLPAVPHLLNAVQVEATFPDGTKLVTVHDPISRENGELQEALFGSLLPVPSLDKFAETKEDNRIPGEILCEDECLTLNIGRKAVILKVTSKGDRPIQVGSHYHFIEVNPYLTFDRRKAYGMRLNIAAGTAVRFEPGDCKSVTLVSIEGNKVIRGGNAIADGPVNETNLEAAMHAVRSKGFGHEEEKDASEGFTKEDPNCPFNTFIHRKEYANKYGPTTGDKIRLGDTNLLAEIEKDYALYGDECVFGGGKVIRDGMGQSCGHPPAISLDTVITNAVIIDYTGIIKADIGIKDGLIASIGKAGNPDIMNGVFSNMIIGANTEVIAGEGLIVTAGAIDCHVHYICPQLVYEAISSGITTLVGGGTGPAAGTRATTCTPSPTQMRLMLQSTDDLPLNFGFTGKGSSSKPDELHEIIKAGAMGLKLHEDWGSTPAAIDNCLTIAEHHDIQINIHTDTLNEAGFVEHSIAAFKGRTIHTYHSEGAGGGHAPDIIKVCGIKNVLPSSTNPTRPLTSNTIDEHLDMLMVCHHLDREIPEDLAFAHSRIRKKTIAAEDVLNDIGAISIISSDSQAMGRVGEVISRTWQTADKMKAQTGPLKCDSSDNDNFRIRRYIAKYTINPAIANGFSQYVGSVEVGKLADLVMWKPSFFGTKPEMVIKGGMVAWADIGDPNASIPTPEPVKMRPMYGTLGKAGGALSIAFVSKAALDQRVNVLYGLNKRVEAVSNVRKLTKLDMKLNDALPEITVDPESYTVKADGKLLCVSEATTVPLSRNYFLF

Structure (SMILES)	IC50 [1]	effect on urease activity [1]	inhibition at 100 µM [2, 9]	inhibition at 100 µM ([3]; compounds tested at 100 µM)	inhibition at 100 µM [4, 10]	IC50 at 24 h [5, 11]	viability at 24 h, 10 µM [5, 12]	viability at 24 h, 100 µM [5, 12]	viability at 24 h, 10 µM ([5]; rat, H9c2 cardiomyocyte cells)	viability at 24 h, 100 µM ([5]; rat, H9c2 cardiomyocyte cells)	IC50 at 24 h [5, 13]	decrease of H9c2 cell viability [6]	decrease of HepG2 cell viability [7]	further results
COC1=CC(=O)C[C@@H](C)[C@]12Oc1c(Cl)c(O)cc(OC)c1C2=O [Compound 9, 6-O-desmethylgriseofulvin]	> 100 µM	no effect; also recorded: did not show any effect	< 10%	~23%	~23%	> 100 µM	91.5 ± 6.8%	84.2 ± 3.2%	97.4 ± 8.1%	92.9 ± 3.7%	> 100 µM	–	–	Inhibition of Microbial Growth, E. coli ([3]; compounds tested at 100 µM, 100 µM): 23.4 ± 1.8%
Cc1cc(O)cc2oc(C[C@H](C)O)cc(=O)c12 [Compound 3, (2′S)-7-hydroxy-2-(2′-hydroxypropyl)-5-methylchromone]	> 100 µM	no effect; also recorded: did not show any effect	< 10%	< 10%	17.7 ± 0.3%	> 100 µM	91.7 ± 1.5%	101 ± 3.9%	96.4 ± 2.1%	74.3 ± 3.2%	> 100 µM	25.7%	–	–
CC1=CC(=O)OCC1 [Compound 11, 5,6-dihydro-4-methyl-2H-pyran-2-one]	11.4 ± 1 µM	–	–	–	–	–	–	–	–	–	–	–	23.4%	inhibition at 100 µM ([2]; KMM455, read-out: Inhibition of Microbial Growth, C. albicans): < 10%; Inhibition of Microbial Growth, C. albicans ([2]; compounds tested at 100 µM): did not affect; inhibition at 100 µM [3]: < 10%; inhibition at 100 µM ([4]; ATCC21027, read-out: Inhibition of Microbial Growth, S. aureus): < 10%; viability at 24 h, 10 µM [5, 14]: 87.5 ± 5.3%; viability at 24 h, 100 µM [5, 14]: 76.6 ± 2.4%; IC50 at 24 h ([5]; human, read-out: HepG2 IC50 (cytotoxic effect)): > 100 µM; viability at 24 h, 10 µM [5, 15]: 95.9 ± 0.6%; viability at 24 h, 100 µM [5, 15]: 89 ± 2.9%; IC50 at 24 h ([5]; rat, read-out: H9c2 IC50 (cytotoxic effect)): > 100 µM; effect on the viability of S. aureus-infected H9c2 cardiomyocytes [8]: did not show any statistical effect
COC1=CC(=O)C[C@@H](C)[C@]12Oc1c(Cl)c(OC)cc(OC)c1C2=O [Compound 8, griseofulvin, reference compound]	10.1 ± 0.6 µM	–	< 10%	16.8 ± 4.5%	11.5 ± 4.3%	77.8 ± 1.3 µM	81 ± 2.1%	39.9 ± 0.7%	89.8 ± 2.7%	71.6 ± 3.7%	> 100 µM	28.4%	60.1%	–
COC1=CC(=O)c2c(O)cc(OC)cc2[C@@]1(C)O [Compound 2, sajaroketide B]	98.5 ± 0.8 µM	–	< 10%	< 10%	< 10%	> 100 µM	87.3 ± 4.1%	76.9 ± 2.1%	96 ± 1.9%	79 ± 3.4%	> 100 µM	21.0%	–	Inhibition of Microbial Growth, E. coli ([3]; compounds tested at 100 µM): inactive; Inhibition of Microbial Growth, S. aureus ([4]; compounds tested at 100 µM): inactive; effect on the viability of S. aureus-infected H9c2 cardiomyocytes [8]: did not show any statistical effect
Cc1cc(O)cc2oc3cc(O)cc(O)c3c(=O)c12 [Compound 5, norlichexanthone]	15.3 ± 2.1 µM	–	< 10%	27.9 ± 3.3%	20.8 ± 6.5%	~100 µM	88 ± 4.9%	52.6 ± 3%	86.3 ± 6.3%	49 ± 1.6%	~100 µM	51.0%	47.4%	IC50 [7]: > 100 µM; IC50 [6]: 97.4 ± 2.2 µM
Cc1cc(O)c(O)c2oc3cc(O)cc(O)c3c(=O)c12 [Compound 7, 1,3,5,6-tetrahydroxy-8-methylxanthone]	100 µM	–	15.4 ± 2.1%	< 10%	< 10%	~100 µM	77.1 ± 1.4%	57.4 ± 4.2%	98 ± 0.9%	52.9 ± 1.5%	~100 µM	–	42.6 µM	IC50 [7]: > 100 µM; IC50 [6]: > 100 µM
COC1=CC(=O)c2c(O)cc(O)cc2[C@@]1(C)O [Compound 1, sajaroketide A]	> 100 µM	no effect; also recorded: very poor	< 10%	25.4 ± 1%	35.1 ± 0.9%	> 100 µM	108 ± 3.2%	107 ± 3.9%	83.6 ± 4.4%	65.4 ± 4.8%	> 100 µM	34.6%	–	–
